Square brackets hold non-standard residues; d marks the D form. Peptide text beside a SMILES is read from it.
Tests used:
Melanocortin receptor 4 = Melanocortin receptor 4 (Mus musculus, UniProt P56450); test: Agonist activity at mouse MC4 receptor expressed in HEK-293 cells assessed as cAMP response measured after 2 hrs incubation by cAMP Alphascreen assay; assay type: functional, cell-based, HEK293
Mus musculus = organism: Mus musculus; test: Selectivity ratio for mouse MC3 receptor over mouse MC4 receptor
Melanocortin receptor 3 = Melanocortin receptor 3 (Mus musculus, UniProt P33033); test: Agonist activity at mouse MC3 receptor expressed in HEK-293 cells assessed as cAMP response measured after 2 hrs incubation by cAMP Alphascreen assay; assay type: functional, cell-based, HEK293
Chain of Melanocortin receptor 3 (P33033 whole entry): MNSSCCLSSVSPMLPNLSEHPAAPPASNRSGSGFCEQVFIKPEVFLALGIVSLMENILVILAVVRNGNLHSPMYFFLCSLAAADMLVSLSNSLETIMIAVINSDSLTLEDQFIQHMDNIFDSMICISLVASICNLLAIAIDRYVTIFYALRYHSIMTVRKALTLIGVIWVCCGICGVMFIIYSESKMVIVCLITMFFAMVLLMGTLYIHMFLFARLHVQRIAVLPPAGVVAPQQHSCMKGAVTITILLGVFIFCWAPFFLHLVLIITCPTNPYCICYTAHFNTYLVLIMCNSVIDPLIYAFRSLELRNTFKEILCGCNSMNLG

Melanocortin receptor 5 = Melanocortin receptor 5 (Mus musculus, UniProt P41149); test: Agonist activity at mouse MC5 receptor expressed in HEK-293 cells assessed as cAMP response measured after 2 hrs incubation by cAMP Alphascreen assay; assay type: functional, cell-based, HEK293
Chain of Melanocortin receptor 5 (P41149 whole entry): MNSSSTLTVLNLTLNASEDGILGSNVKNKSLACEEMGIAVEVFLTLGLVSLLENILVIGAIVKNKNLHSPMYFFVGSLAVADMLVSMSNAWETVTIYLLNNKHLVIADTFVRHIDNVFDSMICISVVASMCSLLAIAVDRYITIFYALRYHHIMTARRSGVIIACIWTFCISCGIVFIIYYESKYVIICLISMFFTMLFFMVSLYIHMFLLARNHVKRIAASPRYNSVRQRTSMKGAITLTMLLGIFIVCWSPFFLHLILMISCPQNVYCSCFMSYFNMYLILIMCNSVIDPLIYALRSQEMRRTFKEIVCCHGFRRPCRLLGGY

[1] = target: Melanocyte-stimulating hormone receptor (Mus musculus, UniProt Q01727); test: Agonist activity at mouse MC1 receptor expressed in HEK-293 cells assessed as cAMP response measured after 2 hrs incubation by cAMP Alphascreen assay; assay type: functional, cell-based, HEK293
Chain of Melanocyte-stimulating hormone receptor (Q01727 whole entry): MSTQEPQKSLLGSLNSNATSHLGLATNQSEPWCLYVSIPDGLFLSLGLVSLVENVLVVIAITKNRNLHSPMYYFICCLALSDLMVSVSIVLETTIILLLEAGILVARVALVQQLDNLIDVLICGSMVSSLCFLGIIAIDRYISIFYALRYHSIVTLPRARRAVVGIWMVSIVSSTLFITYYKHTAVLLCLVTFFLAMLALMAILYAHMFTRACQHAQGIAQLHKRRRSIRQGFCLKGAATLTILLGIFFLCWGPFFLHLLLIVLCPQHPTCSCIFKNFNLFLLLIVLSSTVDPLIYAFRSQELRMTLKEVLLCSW

[2] = target: Melanocortin receptor 3 (Mus musculus) (UniProt P33033); test: Agonist activity at mouse MC3 receptor expressed in HEK-293 cells assessed as cAMP response measured at 100 uM after 2 hrs incubation by cAMP Alphascreen assay relative to control; assay type: functional, cell-based; conditions: HEK293
Chain of Melanocortin receptor 3 (Mus musculus) (P33033 whole entry): as the sequence (P33033 whole entry) above

[3] = target: Melanocyte-stimulating hormone receptor (Mus musculus) (UniProt Q01727); test: Agonist activity at mouse MC1 receptor expressed in HEK-293 cells assessed as cAMP response measured at 100 uM after 2 hrs incubation by cAMP Alphascreen assay relative to control; assay type: functional, cell-based; conditions: HEK293
Chain of Melanocyte-stimulating hormone receptor (Mus musculus) (Q01727 whole entry, looked up): as the sequence (Q01727 whole entry) above

[4] = target: Melanocortin receptor 4 (Mus musculus) (UniProt P56450); test: Agonist activity at mouse MC4 receptor expressed in HEK-293 cells assessed as cAMP response measured at 100 uM after 2 hrs incubation by cAMP Alphascreen assay relative to control; assay type: functional, cell-based; conditions: HEK293
Chain of Melanocortin receptor 4 (Mus musculus) (P56450 whole entry): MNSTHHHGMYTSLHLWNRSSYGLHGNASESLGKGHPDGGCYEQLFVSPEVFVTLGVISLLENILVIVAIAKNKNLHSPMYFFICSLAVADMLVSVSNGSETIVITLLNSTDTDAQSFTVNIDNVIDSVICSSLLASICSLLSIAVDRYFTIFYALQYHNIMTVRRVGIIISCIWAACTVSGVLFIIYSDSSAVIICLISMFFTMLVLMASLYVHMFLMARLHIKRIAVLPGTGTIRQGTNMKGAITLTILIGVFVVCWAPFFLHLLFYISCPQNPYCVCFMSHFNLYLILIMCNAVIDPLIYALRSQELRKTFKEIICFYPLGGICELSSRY

[5] = target: Melanocortin receptor 5 (Mus musculus) (UniProt P41149); test: Agonist activity at mouse MC5 receptor expressed in HEK-293 cells assessed as cAMP response measured at 100 uM after 2 hrs incubation by cAMP Alphascreen assay relative to control; assay type: functional, cell-based; conditions: HEK293
Chain of Melanocortin receptor 5 (Mus musculus) (P41149 whole entry): as the sequence (P41149 whole entry) above

Chain of Melanocortin receptor 4 (P56450 whole entry): as the sequence (P56450 whole entry) above

| Compound | EC50 (Melanocortin receptor 4) [µM] | Selectivity ratio (Mus musculus) | EC50 (Melanocortin receptor 3) [µM] | EC50 (Melanocortin receptor 5) [µM] | EC50 [1] [µM] | Activity [2] [%] | Activity [3] [%] | Activity [4] [%] | Activity [5] [%] |
| --- | --- | --- | --- | --- | --- | --- | --- | --- | --- |
| CC(=O)N[C@@H](Cc1cnc[nH]1)C(=O)N[C@H](Cc1ccccc1)C(=O)N[C@@H](CCCN=C(N)N)C(=O)N[C@@H](Cc1c[nH]c2ccccc12)C(N)=O | 0.0056 | – | – | – | – | – | – | – | – |
| CC(=O)N[C@@H](Cc1c[nH]cn1)C(=O)N[C@H](Cc1ccccc1)C(=O)N[C@@H](CCCNC(=N)N)CC(=O)N[C@@H](Cc1c[nH]c2ccccc12)C(N)=O | 0.07 | 12 | 0.854 | 0.073 | 0.037 | – | – | – | – |
| CC(=O)N[C@@H](Cc1c[nH]cn1)C(=O)N[C@H](Cc1ccccc1)C(=O)N[C@@H](CCCNC(=N)N)C(=O)N[C@H](CC(N)=O)Cc1c[nH]c2ccccc12 | 0.012 | 35 | 0.415 | 0.0056 | 0.033 | – | – | – | – |
| CC(=O)N[C@@H](Cc1c[nH]cn1)C(=O)N[C@@H](Cc1ccccc1)C(=O)N[C@@H](CCCN=C(N)N)C(=O)N[C@@H](Cc1c[nH]c2ccccc12)C(N)=O | 1.21 | – | – | 0.07 | – | – | – | – | – |

Next, values leading:

| EC50 (Melanocortin receptor 4) [µM] | Selectivity ratio (Mus musculus) | EC50 (Melanocortin receptor 3) [µM] | EC50 (Melanocortin receptor 5) [µM] | EC50 [1] [µM] | Activity [2] [%] | Activity [3] [%] | Activity [4] [%] | Activity [5] [%] | Compound |
| --- | --- | --- | --- | --- | --- | --- | --- | --- | --- |
| 7.68 | – | – | 4.81 | 6.58 | 70 | – | – | – | CC(=O)N[C@@H](Cc1c[nH]cn1)C(=O)N[C@H](CC(=O)N[C@@H](CCCNC(=N)N)C(=O)N[C@@H](Cc1c[nH]c2ccccc12)C(N)=O)Cc1ccccc1 |
| – | – | – | – | – | – | 60 | – | – | CC(=O)N[C@@H](Cc1ccccc1)C(=O)N[C@@H](CCCN=C(N)N)C(=O)N[C@@H](Cc1c[nH]c2ccccc12)C(N)=O (Ac-Phe-Arg-Trp-NH2) |
| – | – | – | – | 10 | 40 | – | 70 | 70 | CC(=O)N[C@H](Cc1ccccc1)C(=O)N[C@@H](CCCN=C(N)N)C(=O)N[C@@H](Cc1c[nH]c2ccccc12)C(N)=O (Ac-[dF]-Arg-Trp-NH2) |
| – | – | – | – | 7.03 | 50 | – | 60 | 60 | CC(=O)N[C@@H](Cc1c[nH]cn1)C(=O)N[C@@H](CC(=O)N[C@@H](CCCNC(=N)N)C(=O)N[C@@H](Cc1c[nH]c2ccccc12)C(N)=O)Cc1ccccc1 |
| > 100 | – | > 100 | > 100 | – | – | – | – | – | CC(=O)N[C@@H](Cc1ccccc1)C(=O)N[C@@H](CCCNC(=N)N)C(=O)N[C@@H](Cc1c[nH]c2ccccc12)C(N)=O (Ac-Phe-Arg-Trp-NH2) |

— ChEMBL document CHEMBL3580664, “Synthesis and Pharmacology of α/β(3)-Peptides Based on the Melanocortin Agonist Ac-His-dPhe-Arg-Trp-NH2 Sequence” (ACS Med Chem Lett, 2015)
